Literature values in US20210346403A1, “USE OF COMPOUNDS THAT TARGET MINERALOCORTICOID RECEPTORS FOR TREATING COVID-19” (priority 2020, published 2021).

How the values were obtained:
progestin receptor = molecular target: T1, progestin receptor (Homo sapiens, UniProt P06401); details: fold lower affinity; comparator not stated explicitly (spironolactone or MR implied)
T1 sequence (P06401 1-933): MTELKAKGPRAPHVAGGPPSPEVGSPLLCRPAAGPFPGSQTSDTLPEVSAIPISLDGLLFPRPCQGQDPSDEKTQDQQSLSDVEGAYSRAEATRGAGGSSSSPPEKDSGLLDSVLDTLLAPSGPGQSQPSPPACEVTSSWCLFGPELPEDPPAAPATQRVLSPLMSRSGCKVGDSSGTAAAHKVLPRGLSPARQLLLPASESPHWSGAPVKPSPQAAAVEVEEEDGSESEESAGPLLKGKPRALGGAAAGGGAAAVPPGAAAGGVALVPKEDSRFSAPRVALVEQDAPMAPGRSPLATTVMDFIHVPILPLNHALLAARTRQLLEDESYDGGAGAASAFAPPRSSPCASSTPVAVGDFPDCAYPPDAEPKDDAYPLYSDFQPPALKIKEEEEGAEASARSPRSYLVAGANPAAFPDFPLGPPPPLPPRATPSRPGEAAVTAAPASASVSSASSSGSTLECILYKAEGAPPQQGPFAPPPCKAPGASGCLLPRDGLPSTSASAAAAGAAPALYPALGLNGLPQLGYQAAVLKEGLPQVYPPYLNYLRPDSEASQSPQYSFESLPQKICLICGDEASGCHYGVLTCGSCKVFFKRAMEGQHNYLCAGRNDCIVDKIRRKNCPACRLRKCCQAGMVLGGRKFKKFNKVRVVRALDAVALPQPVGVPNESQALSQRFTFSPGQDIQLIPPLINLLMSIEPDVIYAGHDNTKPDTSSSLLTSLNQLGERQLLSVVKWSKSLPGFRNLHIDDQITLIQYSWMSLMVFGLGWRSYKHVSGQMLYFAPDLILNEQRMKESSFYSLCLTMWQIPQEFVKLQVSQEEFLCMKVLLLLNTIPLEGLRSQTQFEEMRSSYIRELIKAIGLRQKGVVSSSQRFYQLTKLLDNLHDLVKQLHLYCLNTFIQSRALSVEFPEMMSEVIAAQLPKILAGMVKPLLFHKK

[1] = molecular target: T2, mineralocorticoid receptor (MR) (Homo sapiens, UniProt P08235); details: versus other steroid receptors, in words
T2 sequence (P08235 1-984): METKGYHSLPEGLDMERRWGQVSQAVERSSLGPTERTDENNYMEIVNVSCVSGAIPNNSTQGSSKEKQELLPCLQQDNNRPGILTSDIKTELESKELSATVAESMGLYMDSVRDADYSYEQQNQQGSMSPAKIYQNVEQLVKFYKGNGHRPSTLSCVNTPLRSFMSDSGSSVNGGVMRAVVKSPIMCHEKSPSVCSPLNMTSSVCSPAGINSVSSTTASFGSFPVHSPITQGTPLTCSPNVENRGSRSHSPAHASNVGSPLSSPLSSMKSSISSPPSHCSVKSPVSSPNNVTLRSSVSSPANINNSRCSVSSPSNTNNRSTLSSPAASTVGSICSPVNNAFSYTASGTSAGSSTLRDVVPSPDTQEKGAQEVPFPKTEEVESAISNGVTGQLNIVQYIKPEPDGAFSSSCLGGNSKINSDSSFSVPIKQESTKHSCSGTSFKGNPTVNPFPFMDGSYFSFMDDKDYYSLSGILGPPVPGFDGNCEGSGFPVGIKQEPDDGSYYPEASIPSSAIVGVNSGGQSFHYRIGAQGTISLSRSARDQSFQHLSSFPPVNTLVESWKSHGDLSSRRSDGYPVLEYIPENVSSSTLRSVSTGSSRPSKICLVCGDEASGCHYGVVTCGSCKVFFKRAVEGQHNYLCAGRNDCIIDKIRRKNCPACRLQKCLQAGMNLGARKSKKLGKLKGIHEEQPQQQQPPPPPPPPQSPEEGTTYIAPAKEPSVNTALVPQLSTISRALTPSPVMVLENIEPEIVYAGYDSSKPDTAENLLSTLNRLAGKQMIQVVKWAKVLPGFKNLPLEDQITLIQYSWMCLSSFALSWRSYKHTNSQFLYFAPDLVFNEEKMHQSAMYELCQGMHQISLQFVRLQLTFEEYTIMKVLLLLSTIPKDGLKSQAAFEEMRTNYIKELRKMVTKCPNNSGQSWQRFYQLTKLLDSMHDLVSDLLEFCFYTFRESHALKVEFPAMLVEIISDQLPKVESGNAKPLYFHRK

[2] = degraded by aminopeptidase A enzymes on red blood cells

**Q.** For COC(=O)[C@@H]1CC2=CC(=O)CC[C@]2(C)[C@@]23O[C@@H]2C[C@@]2(C)[C@@H](CC[C@@]24CCC(=O)O4)[C@H]13 [Eplerenone, eplerenone], which “lower affinity for the progestin receptor” value (progestin receptor) is on record?
**A.** The value was 500 fold.

**Q.** For CC(=O)S[C@@H]1CC2=CC(=O)CC[C@]2(C)[C@H]2CC[C@@]3(C)[C@@H](CC[C@@]34CCC(=O)O4)[C@H]12 [Spironolactone, spironolactone], which “selectivity for the MR” value [1] is on record?
**A.** The value was “less selective for the MR”.

**Q.** For “angiotensin-2 (DRVYIHPF; Angiotensin-2; UniProt P01019 25-32, looked up) [AngII]”, which half-life [2] is on record?
**A.** The half-life was 30 s.
